Results on twelve molecules are retold here after PMC10577883, “Design and Optimization of Novel Competitive, Non-peptidic, SARS-CoV-2 M^pro Inhibitors” (ACS Medicinal Chemistry Letters, 2023).

In data set [1] the target is SARS-CoV-2 Mpro (3CLpro) (Severe acute respiratory syndrome coronavirus 2, UniProt P0DTD1). Description: SARS-CoV-2 recombinant protease enzymatic assay (FRET). The following applies: for IC50: recombinant Mpro, FRET peptide substrate. The class given is biochemical.
Data set [2] has as its system SARS-CoV-2-Nluc reporter virus. In words: microbe, parasite or virus in culture. The class given is cell-based. The following applies: for EC50: Severe acute respiratory syndrome coronavirus 2, VeroE6/TMPRSS2 cells, parentheses denote 95% confidence intervals.
The nature of data set [3]: in vitro. Particulars: chlorocebus sabaeus.
Data set [4] is described as follows: Rat liver microsome stability assay. The following applies: 37 °C; for RLM percentage remaining after 30 min: 3 μM; for half-life at 3 µM: RLM t1/2, 3 μM, unit inferred. Background: Liver microsomes are a subcellular fraction often used to study metabolism.
Description: Metabolic Stability Assay
(§1) Liver Microsome Stability Assay Protocol
(§2) Human liver microsomes (HLMs, 20 mg/mL), CD-1 mouse liver microsomes (MLMs, 20 mg/mL), Sprague Dawley
(§3) rat liver microsomes (RLMs, 20 mg/mL) were purchased from Xenotech. NADPH was purchased from Sigma-
(§4) Aldrich and prepared in 10 mM stock solutions of distilled H2O (InvitrogenTM UltraPureTM). Verapamil and
(§5) diphenhydramine were both purchased from Sigma-Aldrich and served as positive controls for LM stability assays.
(§6) Test compounds and positive controls were initially dissolved in DMSO to make 10 mM stock solutions. Sample
(§7) solutions were then further diluted in 100% MeCN to 500 μM. Next, the reactions were prepared by mixing human
(§8) or mouse liver microsomes (55 μL) with potassium phosphate buffer (100 mM, 928 μL) in 1.5 mL Eppendorf tubes.
(§9) The test compounds (6.6 μL of 500 μM solution) were subsequently added to the suspensions, and the reaction
(§10) mixtures were incubated at 37 °C for 5 min. Afterward, the liver microsome reactions were initiated with 110 μL
(§11) of 10 mM NADPH and further incubated at 37 °C for the designated time course of the study. This procedure
(§12) provided experiments with a final volume of 1100 μL (0.6% organic solvent content) and a final test compound
(§13) concentration of 3 μM. Aliquots (100 μL) were removed from each reaction mixture in duplicate at 0, 5, 10, 15,
(§14) and 30 min time intervals and quenched with 100 μL of cold internal standard solution (ISTD, 2 μM
(§15) 7-ethoxy-d 5-coumarin in MeOH or MeCN). Quenched aliquots were then centrifuged at 12,500 g for 5-10 min, and
(§16) the resulting supernatants were withdrawn and placed in LC-MS vials to be analyzed by LC-MS/MS (Agilent
(§17) G6460C QQQ MS coupled with an Infinity II 1260 HPLC). Each test compound was run in tandem with positive and
(§18) negative control experiments for quality assurance. Positive control reactions were conducted at a final volume
(§19) of 550 μL for a single run of each time point. Lastly, the negative control experiment was conducted with test
(§20) compounds and liver microsomes in the absence of NADPH (150 μL) and analyzed at the 30 min time point.
(§21) Data Analysis. Each data point was analyzed in triplicate using in-between blank washes to avoid carry over and
(§22) to equilibrate the column for the subsequent runs. Averages of these triplicates for individual compounds at each
(§23) time point were then normalized to the data at 0 min, representing 100% test compound remaining or 0%
(§24) metabolism. Half-lives (t 1/2) were calculated by plotting ln of % test compound remaining versus time and
(§25) performing linear regression to determine slope.
(§26) Instrumentation and LC-MS/MS Method Development
(§27) LC-MS/MS analyses were conducted on an Agilent 1260 Infinity II HPLC equipped with an Agilent G6460 triple
(§28) quadrupole mass spectrometer (Agilent Technologies, USA). Reverse-phase HPLC separation for each compound
(§29) m) column maintained at 40 °C. The mobile phase used during analyses consisted of either MeOH-H2O (0.1% FA)
(§30) or MeCN-H2O (0.1% FA) at a flow rate of 0.5 mL/min. Each method was developed in the presence of the internal
(§31) standard (ISTD), 7-ethoxy-d 5-coumarin. Precursor and product ion detection was performed with Agilent Jet
(§32) Stream electrospray positive ionization (ESI+) in multiple reaction monitoring (MRM) mode. All MRM transitions,
(§33) MS conditions were as follows: dwell time of 100 ms; gas flow of 10 L/min; nebulizer pressure of 45 psi; delta EMV
(§34) of 200 V. Lastly, all acquired data was processed using Agilent 6460 Quantitative Analysis software.
The nature of data set [5]: Human liver microsome stability assay. The following applies: for HLM percentage remaining after 30 min: 3 μM, 37 °C; for half-life at 3 µM / remaining at 5 min, 3 µM / remaining at 10 min, 3 µM / remaining at 0.25 h, 3 µM: human, microsomes.
Description: Metabolic Stability Assay
as §1, §2, §3, §4, §5, §6, §7, §8, §9, §10, §11, §12, §13, §14, §15, §16, §17, §18, §19, §20, §21, §22, §23, §24, §25, §26, §27, §28, §29, §30, §31, §32, §33, §34
Data set [6] in a line: Mouse liver microsome stability assay. Particulars: for MLM percentage remaining after 30 min: 3 μM, 37 °C; for half-life at 3 µM / remaining at 5 min, 3 µM / remaining at 10 min, 3 µM / remaining at 0.25 h, 3 µM: CD-1, mouse, microsomes.
Description: Metabolic Stability Assay
as §1, §2, §3, §4, §5, §6, §7, §8, §9, §10, §11, §12, §13, §14, §15, §16, §17, §18, §19, §20, §21, §22, §23, §24, §25, §26, §27, §28, §29, §30, §31, §32, §33, §34
Setting [7] is: Sprague-Dawley, rat, microsomes.

What is called IC50 is the concentration needed to halve the response being measured. As usually defined, the EC50 is the midpoint of the concentration-response curve. Usually half-life stands for the time in which the quantity being followed falls by half. In general, amount remaining refers to the share of the starting amount still present when the sample was taken. High values mean less turnover, low ones more turnover.

Several values for one entry are separate records, joined by “and”; a condition that tells them apart may be missing. Equal values may be shown once. Some results are limits rather than exact numbers.

For `O=c1[nH]cccc1-c1cn(-c2cc(Cl)cc(Cl)c2)c(=O)n(-c2cccnc2)c1=O` [Compound 6], in data set [1], the IC50 is 276 nM and 280 nM. In addition, in data set [2], the “EC50 range in words” value is “sub-micromolar” and the EC50 was determined as 500 nM. In data set [3], the CC50 was over 100000 nM.

As to `O=c1[nH]cccc1-c1cn(-c2cc(Cl)cc(OCc3nc4ccccc4n3C(F)F)c2)c(=O)n(-c2cccnc2)c1=O` [Compound 38], the IC50 in data set [1] is 21 nM. The EC50 in data set [2] is 1890 nM. In addition, in data set [3], the CC50 was over 100000 nM.

With `O=c1[nH]cccc1-c1cn(-c2cc(Cl)cc(OCc3scnc3C(F)(F)F)c2)c(=O)n(-c2cccnc2)c1=O` [Compound 37], the half-inhibitory concentration (IC50) in data set [1] was found to be 43 nM. For the same molecule, the half-maximal effective concentration (EC50) in data set [2] was determined as 2400 nM. The CC50 in data set [3] is over 100000 nM.

Take `O=c1[nH]cccc1-c1cn(-c2cc(Cl)cc(OCC3CC3)c2)c(=O)n(-c2cccnc2)c1=O` [Compound 35]: in data set [1], the IC50 is 100 nM. Further, in data set [2], the 50% effective concentration (EC50) was determined as 820 nM. This molecule gave a CC50 in data set [3] of over 100000 nM.

Consider `Cc1nc(C)c(COc2cc(Cl)cc(-n3cc(-c4ccc[nH]c4=O)c(=O)n(-c4cccnc4)c3=O)c2)s1` [Compound 40], for which the IC50 in data set [1] was 16 nM. The EC50 in data set [2] came out at 10200 nM. The CC50 in data set [3] was over 100000 nM.

As for `O=c1ccc(-c2cn(-c3cc(Cl)cc(Cl)c3)c(=O)n(-c3cccnc3)c2=O)c[nH]1` [Compound 7], the IC50 in data set [1] is 1580 nM and 1590 nM. Moreover, the EC50 in data set [2] is over 20000 nM. Besides, the CC50 in data set [3] was over 100000 nM.

In the case of `Cc1scnc1COc1cc(Cl)cc(-n2cc(-c3ccc[nH]c3=O)c(=O)n(-c3cccnc3)c2=O)c1` [Compound 39], in data set [1], the IC50 turned out to be 17 nM. For the same molecule, the EC50 in data set [2] was 5000 nM. This molecule showed a CC50 in data set [3] of over 100000 nM.

Take `Cn1c([N+](=O)[O-])cnc1COc1cc(Cl)cc(-n2cc(-c3ccc[nH]c3=O)c(=O)n(-c3cccnc3)c2=O)c1` [Compound 42]: the half-inhibitory concentration (IC50) in data set [1] was determined as 12 nM. Also, the EC50 in data set [2] came to 19300 nM. The molecule further yielded a CC50 in data set [3] of over 100000 nM.

In the case of `O=c1[nH]cccc1-c1cn(-c2cc(Cl)cc(OCc3ncsc3C(F)(F)F)c2)c(=O)n(-c2cccnc2)c1=O` [Compound 45], the IC50 in data set [1] came out at 12 nM. Further, in data set [2], the “EC50 range in words” value is listed as “sub-micromolar” and the concentration for a half-maximal effect (EC50) came to 820 nM. This molecule displayed a CC50 in data set [3] of over 100000 nM. Besides, the “RLM percentage remaining after 30 min” value in data set [4] is on record as 30.9%. This molecule returned a half-life at 3 µM in data set [4] (setting [7]) of 18 min. In data set [5], the “HLM percentage remaining after 30 min” value is 19.5% and 19.47%; the half-life at 3 µM turned out to be 13 min; the fraction remaining at 5 min, 3 µM was 84.6%; the fraction remaining at 10 min, 3 µM was determined as 49.9%. The amount remaining at 0.25 h, 3 µM in data set [5] turned out to be 48.5%. In data set [6], the “MLM percentage remaining after 30 min” value was 14.4% and 14.41%; the half-life at 3 µM is 11 min; the amount remaining at 5 min, 3 µM was 54.6%; the share remaining at 10 min, 3 µM came out at 43%. Moreover, in data set [6], the share remaining at 0.25 h, 3 µM was found to be 20.6%.

On to `O=c1[nH]cccc1-c1cn(-c2cc(Cl)cc(OCc3nccn3C(F)F)c2)c(=O)n(-c2cccnc2)c1=O` [Compound 41], for which the IC50 in data set [1] turned out to be 13 nM. For the same molecule, in data set [2], the EC50 came out at 6760 nM. Besides, the CC50 in data set [3] is over 100000 nM. The “RLM percentage remaining after 30 min” value in data set [4] was 90.2% and 90.17%. Moreover, in data set [4] (Sprague-Dawley, rat, microsomes, RLM Rel % remaining, 5 min), the share remaining at 5 min, 3 µM is 97.6%. The share remaining at 10 min, 3 µM in data set [4] (Sprague-Dawley, rat, microsomes, RLM Rel % remaining, 10 min) is 95.2%. This molecule gave a share remaining at 0.25 h, 3 µM in data set [4] (Sprague-Dawley, rat, microsomes, RLM Rel % remaining, 15 min) of 93.9%. Also, the half-life at 3 µM in data set [4] (setting [7]) was over 30 min. Also, in data set [5], the “HLM percentage remaining after 30 min” value is 70.7%; the half-life at 3 µM was over 30 min; the amount remaining at 5 min, 3 µM worked out at 94.5%; the amount remaining at 10 min, 3 µM is 84.4%. In data set [5], the share remaining at 0.25 h, 3 µM worked out at 66.4%. In addition, in data set [6], the “MLM percentage remaining after 30 min” value was 22.8% and 22.79%; the half-life at 3 µM was found to be 14.7 min; the share remaining at 5 min, 3 µM was found to be 63.8%; the fraction remaining at 10 min, 3 µM is 50.2%. In addition, in data set [6], the share remaining at 0.25 h, 3 µM turned out to be 37.7%.

With `Cn1cc(COc2cc(Cl)cc(-n3cc(-c4ccc[nH]c4=O)c(=O)n(-c4cccnc4)c3=O)c2)c(C(F)(F)F)n1` [Compound 44], in data set [1], the “IC50 range in words” value is reported as “single-digit nanomolar range” and the IC50 amounted to 5.6 nM. In data set [2], the EC50 worked out at 3300 nM. In data set [3], this molecule yielded a CC50 of over 100000 nM.

Regarding `Cc1scnc1COc1cc(Cl)cc(-n2cc(-c3ccc(=O)[nH]c3)c(=O)n(-c3cccnc3)c2=O)c1` [Compound 51], in data set [1], the half-maximal inhibitory concentration (IC50) turned out to be 120 nM. The EC50 in data set [2] is over 20000 nM. The same molecule displayed a CC50 in data set [3] of over 100000 nM.
